Here are results for 3 molecules from paper PMC9218960 (ACS infectious diseases, 2020).

In general, IC50 refers to the concentration that inhibits the measured activity by half.

The target in one assay is T1, PfENT1 V129I/L133F (Plasmodium falciparum, UniProt Q8IDM6, L133F/V129I).
T1 sequence (Q8IDM6 1-422 V129I/L133F): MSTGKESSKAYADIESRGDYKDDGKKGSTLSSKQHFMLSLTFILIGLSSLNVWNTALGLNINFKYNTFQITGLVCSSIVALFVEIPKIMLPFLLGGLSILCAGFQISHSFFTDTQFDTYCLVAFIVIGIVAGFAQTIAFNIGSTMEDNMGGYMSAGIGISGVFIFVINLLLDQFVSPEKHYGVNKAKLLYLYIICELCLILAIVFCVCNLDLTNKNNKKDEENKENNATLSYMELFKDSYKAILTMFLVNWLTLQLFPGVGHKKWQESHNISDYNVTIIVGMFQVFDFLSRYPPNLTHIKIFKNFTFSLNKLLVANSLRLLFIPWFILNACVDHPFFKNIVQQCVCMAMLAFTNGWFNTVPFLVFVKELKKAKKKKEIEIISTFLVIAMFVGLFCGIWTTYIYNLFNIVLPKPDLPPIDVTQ
The experiment in a line: [3H]uridine uptake inhibition by purines in PfENT1-SNP-expressing yeast. It counts as cell-based.

The target in the next assay is T2, PfENT1 F394L (Plasmodium falciparum, UniProt Q8IDM6, F394L).
T2 sequence (Q8IDM6 1-422 F394L): T1 sequence (Q8IDM6 1-422 V129I/L133F) with I129V, F133L, F394L
The description is as above. It counts as cell-based.

Molecules are shown by their SMILES. Residue numbers refer to the chain shown, from its start.

On to `Nc1ncnc2nc[nH]c12` [Adenine, adenine], for which the IC50 against PfENT1 V129I/L133F is 930 ± 285 µM; against PfENT1 F394L, 1500 ± 227 µM.
The corresponding values for `O=c1[nH]cnc2nc[nH]c12` [Hypoxanthine, hypoxanthine] are 360 ± 66 µM and 837 ± 93 µM.
Regarding `OC[C@H]1O[C@@H](n2cnc3c(O)ncnc32)[C@H](O)[C@@H]1O` [Inosine, inosine], the IC50 on PfENT1 V129I/L133F is 20 ± 7 µM; at PfENT1 F394L it was 94 ± 29 µM.
